Measured values taken from patent US20080249042A1, “All-Trans-Retinol: All-Trans-13,14-Dihydroretinol Saturase and Methods of Its Use” (UNIVERSITY OF WASHINGTON, priority 2004, published 2008).

Legend:
[1] = Liver retinoids of Lrat-/- mice 3 h after gavage with all-trans-DROL; type: in vivo, mouse; conditions: 3 h post-gavage
Description: (§1) Metabolism of Retinoids in Vivo. All animal experiments employed procedures approved by the University of Washington and conformed to recommendations of the American Veterinary Medical Association Panel on Euthanasia and recommendations of the Association of Research for Vision and Ophthalmology. Animals were maintained on a 12-h light and 12-h dark cycle. All manipulations were done under dim red or infrared light (>560 nm). Most experiments used 6-12-week-old mice. Lrat−/− mice were genotyped as described previously. Batten, et al. J. Biol. Chem. 279:10422-10432, 2004. Animals were maintained on a control chow diet up to 1 h prior to oral gavage. The appropriate amount of all-trans-ROL palmitate, all-trans-DROL, or all-trans-RA was dissolved in vegetable oil and administered by oral gavage 3 h prior to analysis.
(§2) Analysis of Retinoids. Liver (1 g) from retinoid gavaged or naive mice was homogenized in 2 ml of 137 mM NaCl, 2.7 mM KCl, and 10 mM sodium phosphate (pH 7.4) for 30 s using a Polytron homogenizer. 10 μl of 5 M NaOH was added to 3 ml of the ethanolic extract, and the nonpolar retinoids were extracted using 5 ml of hexane. The extraction was repeated, and the organic phases were combined, dried under vacuum, resuspended in hexane, and examined by normal phase HPLC using a normal phase column (Beckman Ultrasphere Si 5μ, 4.6×250 mm). […] The HPLC elution conditions were […], 100% buffer A for 40 min, 100% buffer B for 10 min, and 10 min equilibration in buffer A. The elution profiles of RA and DRA were monitored using an online diode array detector set at 350 and 290 nm, respectively. […] The measured area of absorbance was converted to picomoles based on a calibration of the HPLC columns using a known amount of all-trans-RA or all-trans-ROL (Sigma) and all-trans-DROL or all-trans-DRA (synthetic standards). The extraction efficiency was monitored by spiking a tissue sample with [^3H]RA (PerkinElmer Life Sciences) and monitoring the radioactivity recovered from the HPLC column. […]

[2] = Liver retinoids of Lrat-/- mice 3 h after gavage with all-trans-RA; type: in vivo, mouse; conditions: 3 h post-gavage
Description: as §1, §2

tomato CRTISO = biological target: T1, tomato CRTISO (Solanum lycopersicum, UniProt Q8S4R4); experiment: CRTISO activity in transfected HEKK cells; type: cell-based; conditions: CRTISO-expressing cells, overnight, in the dark
T1 construct: expressed in transfected cells
T1 sequence (Q8S4R4 with tags, fused parts or gaps): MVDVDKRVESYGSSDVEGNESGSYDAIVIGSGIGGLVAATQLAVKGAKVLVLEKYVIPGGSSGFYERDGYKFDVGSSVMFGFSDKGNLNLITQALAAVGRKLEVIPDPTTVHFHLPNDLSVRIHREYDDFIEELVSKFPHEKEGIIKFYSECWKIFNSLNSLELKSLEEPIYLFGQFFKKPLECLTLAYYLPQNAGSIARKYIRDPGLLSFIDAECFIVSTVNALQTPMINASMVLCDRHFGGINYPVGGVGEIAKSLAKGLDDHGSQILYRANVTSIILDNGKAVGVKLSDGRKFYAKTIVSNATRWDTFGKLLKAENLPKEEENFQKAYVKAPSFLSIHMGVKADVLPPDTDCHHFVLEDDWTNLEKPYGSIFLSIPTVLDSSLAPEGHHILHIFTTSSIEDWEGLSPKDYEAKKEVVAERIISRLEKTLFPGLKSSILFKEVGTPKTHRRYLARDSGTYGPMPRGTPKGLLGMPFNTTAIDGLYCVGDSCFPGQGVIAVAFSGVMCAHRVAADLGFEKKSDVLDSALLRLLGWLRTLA
Procedure: 7Z,9Z,9′Z,7′Z-Tetra-cis-tycopene purification and reverse-phase HPLC analysis of carotenoids. Carotenoid extraction and analysis were performed under dim red light. One gram from the fruit of a tangerine tomato was freeze-thawed three times and extracted with 2 ml PBS, 2 ml of ethanol, and 6 ml of hexane with the aid of a douncer. The organic phase was dried and resuspended in ethanol/tetrahydrofuran (9:1), and examined by reverse-phase HPLC System I (Prontosil, 200-3-C30, 3 μm, 4.6 mm×250 mm, Bischoff Chromatography, Leonberg, Germany) with a mobile phase of 75% tert-butyl methyl ether/25% methanol and a flow rate of 1 ml/min. More than 90% of the extract consisted of 7Z,9Z,9′Z,7′Z-tetra-cis-lycopene identified based on its published UV/VIS absorption spectrum in hexane with the following characteristics: shoulder at λ=417 nm, ε=90,000 M^−1cm^−1, λmax=437 nm, ε=105,000 M−1 cm^−1, shoulder at λ=461 nm ε=70,000 M^−1cm^−1. Bradford, Anal Biochem 72:248-254, 1976.
Enzyme assays of RetSat and CRTISO-catalyzed reactions. For enzyme assay, cells were seeded in six-well plates and expression of RetSat or CRTISO was induced with 1 μg/ml tetracycline 48 hr prior to analysis. […] For retinol and dihydroretinol analysis the methanol:water mixture was extracted with two volumes of hexane, then the organic phase was dried, resuspended in hexane, and analyzed by normal-phase HPLC. […]

| Compound | Level in liver after gavage with all-trans-DROL [1] | Formation in liver after gavage with all-trans-RA [2] | Conversion by CRTISO (substrate activity) (tomato CRTISO) |
| --- | --- | --- | --- |
| CC1=C(/C=C/C(C)=C/C=C/C(C)CC(=O)O)C(C)(C)CCC1 (stereo not drawn) [all-trans-DRA, all-trans-13,14-dihydroretinoic acid] | significant levels | no evidence | – |
| CC1=C(/C=C/C(C)=C/C=C/C(C)=C/CO)C(C)(C)CCC1 [all-trans-ROL, all-trans-retinol] | – | – | no saturase activity |
